Source: US10844062B2, “Pyridine derivative inhibiting RAF kinase and vascular endothelial growth factor receptor, method for preparing same, pharmaceutical composition containing same, and use thereof” (SAMJIN PHARMACEUTICAL CO., LTD., priority 2016, dated 2020)
pIC50: −log10 of the molar value.

What follows are compounds tested on LS513 KRAS G12V (colon) (assay: MTT assay). Conditions: Homo sapiens, LS-513, 72 h, Table 4; 3 days incubation; read-out: MTT assay IC50 KRAS mutant (Colon) LS513 KRAS G12V.
Assay type: cell-based
Method in brief: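 Cells were seeded at line-dependent density and stabilised overnight at 37 °C, then exposed to compounds for 3 days at 37 °C. MTT was then added for 2 h and the formazan dissolved in DMSO.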

`CC(C)(C#N)c1cc(C(=O)Nc2cc(Nc3ncccc3-c3ncnc4[nH]cnc34)ccc2F)ccc1F` [Example 116, N-5-[(3-(9H-purin-6-yl)pyridin-2-yl)amino]-2-fluoropheny-3-(2-cyanopropan-2-yl)-4-fluorobenzamide] and `CC(C)(C#N)c1cc(C(=O)Nc2cc(Nc3ncccc3-c3ncnc4[nH]cnc34)ccc2F)ccc1Cl` [Example 117, N-5-[(3-(9H-purin-6-yl)pyridin-2-yl)amino]-2-fluorophenyl-4-chloro-3-(2-cyanopropan-2-yl)benzamide] are within 0.2 log units of each other in pIC50: 6.23 for the first, 6.06 for the second.

First: O=C(Nc1cccc(C(F)(F)F)c1)Nc1cc(Nc2ncccc2-c2ncnc3[nH]cnc23)ccc1F [Example 118, 1-5-[(3-(9H-purin-6-yl)pyridin-2-yl)amino]-2-fluorophenyl-3-[3-(trifluoromethyl)phenyl]urea]
Second: O=C(Nc1ccc(C(F)(F)F)cc1)Nc1cc(Nc2ncccc2-c2ncnc3[nH]cnc23)ccc1F [Example 123, 1-5-[(3-(9H-purin-6-yl)pyridin-2-yl)amino]-2-fluorophenyl-3-[4-(trifluoromethyl)phenyl]urea]
The pIC50 of the first is 0.41 log units higher: 6.82 for the first, 6.41 for the second. The first is the more potent here.

Going from `CC(C)(C#N)c1cccc(C(=O)Nc2cc(Nc3ncccc3-c3ncnc4[nH]cnc34)ccc2F)n1` [Example 119, N-5-[(3-(9H-purin-6-yl)pyridin-2-yl)amino]-2-fluorophenyl-6-(2-cyanopropan-2-yl)picolinamide] to `O=C(Nc1cc(Nc2ncccc2-c2ncnc3[nH]cnc23)ccc1F)c1cccc(C(F)(F)F)n1` [Example 136, N-5-[(3-(9H-purin-6-yl)pyridin-2-yl)amino]-2-fluorophenyl-6-(trifluoromethyl) picolinamide], the pIC50 rises from less than 5.00 to 5.64. The second is the more potent here.

First: O=C(Nc1cc(Nc2ncccc2-c2ncnc3[nH]cnc23)ccc1F)c1cc(C(F)(F)F)ccc1F [Example 120, N-5-[(3-(9H-purin-6-yl)pyridin-2-yl)amino]-2-fluorophenyl-2-fluoro-5-(trifluoromethyl)benzamide]
Second: O=C(Nc1cc(Nc2ncccc2-c2ncnc3[nH]cnc23)ccc1F)c1cc(C(F)(F)F)ccc1C(F)(F)F [Example 130, N-5-[(3-(9H-purin-6-yl)pyridin-2-yl)amino]-2-fluorophenyl-2,5-bis(trifluoromethyl)benzamide]
The pIC50 of the first is 0.51 log units lower: 5.47 for the first, 5.98 for the second.

First: O=C(Nc1cc(Nc2ncccc2-c2ncnc3[nH]cnc23)ccc1F)c1cccc(C(F)(F)F)c1F [Example 121, N-5-[(3-(9H-purin-6-yl)pyridin-2-yl)amino]-2-fluorophenyl-2-fluoro-3-(trifluoromethyl)benzamide]
Second: O=C(Nc1cc(Nc2ncccc2-c2ncnc3[nH]cnc23)ccc1F)c1ccc(C(F)(F)F)c(F)c1 [Example 133, N-5-[(3-(9H-purin-6-yl)pyridin-2-yl)amino]-2-fluorophenyl-3-fluoro-4-(trifluoromethyl)benzamide]
The pIC50 of the first is 1.27 log units higher: 6.52 for the first, 5.25 for the second. The first is the more potent here.

Going from `O=C(Nc1cccc(Nc2ncccc2-c2ncnc3[nH]cnc23)c1F)c1cccc(C(F)(F)F)c1` [Example 122, N-3-[(3-(9H-purin-6-yl)pyridin-2-yl)amino]-2-fluorophenyl-3-(trifluoromethyl)benzamide] to `O=C(Nc1cc(Nc2ncccc2-c2ncnc3[nH]cnc23)ccc1F)c1cccc(OC(F)(F)F)c1` [Example 131, N-5-[(3-(9H-purin-6-yl)pyridin-2-yl)amino]-2-fluorophenyl-3-(trifluoromethoxy)benzamide], the pIC50 rises from 5.18 to 6.99 (1.81 log units).

`O=C(Nc1cc(Nc2ncccc2-c2ncnc3[nH]cnc23)ccc1Cl)c1cc(C(F)(F)F)cc(C(F)(F)F)c1` [Example 124, N-5-[(3-(9H-purin-6-yl)pyridin-2-yl)amino]-2-chlorophenyl-3,5-bis(trifluoromethyl)benzamide] and `O=C(Nc1cc(Nc2ncccc2-c2ncnc3[nH]cnc23)ccc1F)c1ccc(C(F)(F)F)cc1C(F)(F)F` [Example 128, N-5-[(3-(9H-purin-6-yl)pyridin-2-yl)amino]-2-fluorophenyl-2,4-bis(trifluoromethyl)benzamide] are within 0.2 log units of each other in pIC50: 6.05 for the first, 5.92 for the second.

`CSc1cccc(C(=O)Nc2cc(Nc3ncccc3-c3ncnc4[nH]cnc34)ccc2F)c1` [Example 125, N-5-[(3-(9H-purin-6-yl)pyridin-2-yl)amino]-2-fluorophenyl-3-(methylthio)benzamide] and `Cc1cccc(C(=O)Nc2cc(Nc3ncccc3-c3ncnc4[nH]cnc34)ccc2F)c1` [Example 145, N-5-[(3-(9H-purin-6-yl)pyridin-2-yl)amino]-2-fluorophenyl-3-methylbenzamide] are within 0.2 log units of each other in pIC50: 6.12 for the first, 5.99 for the second.

`CS(=O)(=O)c1cccc(C(=O)Nc2cc(Nc3ncccc3-c3ncnc4[nH]cnc34)ccc2F)c1` [Example 126, N-5-[(3-(9H-purin-6-yl)pyridin-2-yl)amino]-2-fluorophenyl-3-(methylsulfonyl)benzamide] and `O=C(Nc1cc(Nc2ncccc2-c2ncnc3[nH]cnc23)ccc1F)c1cccc(Cl)c1` [Example 146, N-5-[(3-(9H-purin-6-yl)pyridin-2-yl)amino]-2-fluorophenyl-3-chlorobenzamide] are within 0.2 log units of each other in pIC50: 5.95 for the first, 5.77 for the second.

`CC(C)(C#N)c1cc(F)cc(C(=O)Nc2cc(Nc3ncccc3-c3ncnc4[nH]cnc34)ccc2Cl)c1` [Example 127, N-5-[(3-(9H-purin-6-yl)pyridin-2-yl)amino]-2-chlorophenyl-3-(2-cyanopropan-2-yl)-5-fluorobenzamide] and `Cc1ccc(NC(=O)c2cccc(C(C)(C)C#N)c2)cc1Nc1ncccc1-c1ncnc2[nH]cnc12` [Example 153, N-3-[(3-(9H-purin-6-yl)pyridin-2-yl)amino]-4-methylphenyl-3-(2-cyanopropan-2-yl)benzamide] are within 0.2 log units of each other in pIC50: 6.23 for the first, 6.35 for the second.

Compared with `O=C(Nc1cc(Nc2ncccc2-c2ncnc3[nH]cnc23)ccc1F)c1ccc(C(F)(F)F)c(C(F)(F)F)c1` [Example 129, N-5-[(3-(9H-purin-6-yl)pyridin-2-yl)amino]-2-fluorophenyl-3,4-bis(trifluoromethyl)benzamide], `Cc1ccc(C(=O)Nc2cc(Nc3ncccc3-c3ncnc4[nH]cnc34)ccc2F)cc1C(F)(F)F` [Example 138, N-5-[(3-(9H-purin-6-yl)pyridin-2-yl)amino]-2-fluorophenyl-4-methyl-3-(trifluoromethyl)benzamide] is 0.20 log units higher in pIC50: 6.19 for the first, 6.39 for the second.

Going from `COc1cc(OC)cc(C(=O)Nc2cc(Nc3ncccc3-c3ncnc4[nH]cnc34)ccc2F)c1` [Example 132, N-5-[(3-(9H-purin-6-yl)pyridin-2-yl)amino]-2-fluorophenyl-3,5-dimethoxybenzamide] to `COc1cc(OC(F)(F)F)cc(C(=O)Nc2cc(Nc3ncccc3-c3ncnc4[nH]cnc34)ccc2F)c1` [Example 140, N-5-[(3-(9H-purin-6-yl)pyridin-2-yl)amino]-2-fluorophenyl-3-methoxy-5-(trifluoromethoxy)benzamide], the pIC50 rises from 6.23 to 6.53 (0.30 log units).

Compared with `COc1ccc(C(=O)Nc2cc(Nc3ncccc3-c3ncnc4[nH]cnc34)ccc2F)cc1C(F)(F)F` [Example 134, N-5-[(3-(9H-purin-6-yl)pyridin-2-yl)amino]-2-fluorophenyl-4-methoxy-3-(trifluoromethyl)benzamide], `COc1ccc(C(=O)Nc2cc(Nc3ncccc3-c3ncnc4[nH]cnc34)ccc2F)cc1OC(F)(F)F` [Example 150, N-5-[(3-(9H-purin-6-yl)pyridin-2-yl)amino]-2-fluorophenyl-4-methoxy-3-(trifluoromethoxy)benzamide] is 0.54 log units lower in pIC50: 7.14 for the first, 6.60 for the second.

Going from `Cc1cc(C(=O)Nc2cc(Nc3ncccc3-c3ncnc4[nH]cnc34)ccc2F)ccc1F` [Example 137, N-5-[(3-(9H-purin-6-yl)pyridin-2-yl)amino]-2-fluorophenyl-4-fluoro-3-methylbenzamide] to `O=C(Nc1cc(Nc2ncccc2-c2ncnc3[nH]cnc23)ccc1F)c1ccc(F)c(OC(F)(F)F)c1` [Example 143, N-5-[(3-(9H-purin-6-yl)pyridin-2-yl)amino]-2-fluorophenyl-4-fluoro-3-(trifluoromethoxy)benzamide], the pIC50 rises from 5.98 to 6.25 (0.27 log units).

`O=C(Nc1cc(Nc2ncccc2-c2ncnc3[nH]cnc23)ccc1F)c1cccc(C2CC2)c1` [Example 141, N-5-[(3-(9H-purin-6-yl)pyridin-2-yl)amino]-2-fluorophenyl-3-cyclopropylbenzamide] and `O=C(Nc1cc(Nc2ncccc2-c2ncnc3[nH]cnc23)ccc1F)c1ccnc(C(F)(F)F)c1` [Example 151, N-5-[(3-(9H-purin-6-yl)pyridin-2-yl)amino]-2-fluorophenyl-2-(trifluoromethyl)isonicotinamide] are within 0.2 log units of each other in pIC50: 6.35 for the first, 6.46 for the second.

Compared with `O=C(Nc1cc(Nc2ncccc2-c2ncnc3[nH]cnc23)ccc1F)c1cc(Cl)cc(OC(F)(F)F)c1` [Example 142, N-5-[(3-(9H-purin-6-yl)pyridin-2-yl)amino]-2-fluorophenyl-3-chloro-5-(trifluoromethoxy)benzamide], `O=C(Nc1cc(Nc2ncccc2-c2ncnc3[nH]cnc23)ccc1F)c1ccc(Cl)c(OC(F)(F)F)c1` [Example 147, N-5-[(3-(9H-purin-6-yl)pyridin-2-yl)amino]-2-fluorophenyl-4-chloro-3-(trifluoromethoxy)benzamide] is 0.59 log units lower in pIC50: 6.89 for the first, 6.30 for the second.

Compared with `O=C(Nc1cc(Nc2ncccc2-c2ncnc3[nH]cnc23)ccc1F)c1cc(C(F)(F)F)ccn1` [Example 144, N-5-[(3-(9H-purin-6-yl)pyridin-2-yl)amino]-2-fluorophenyl-4-(trifluoromethyl) picolinamide], `O=C(Nc1cc(Nc2ncccc2-c2ncnc3[nH]cnc23)ccc1F)c1cncc(C(F)(F)F)c1` [Example 149, N-5-[(3-(9H-purin-6-yl)pyridin-2-yl)amino]-2-fluorophenyl-5-(trifluoromethyl)nicotinamide] is 0.30 log units lower in pIC50: 6.35 for the first, 6.05 for the second. The first is the more potent here.

First: O=C(Nc1cc(Nc2ncccc2-c2ncnc3[nH]cnc23)ccc1F)c1ccnc(C(F)(F)F)c1F [Example 148, N-5-[(3-(9H-purin-6-yl)pyridin-2-yl)amino]-2-fluorophenyl-3-fluoro-2-(trifluoromethyl)isonicotinamide]
Second: COc1ccc(NC(=O)c2cccc(C(C)(C)C#N)c2)cc1Nc1ncccc1-c1ncnc2[nH]cnc12 [Example 152, N-3-[(3-(9H-purin-6-yl)pyridin-2-yl)amino]-4-methoxyphenyl-3-(2-cyanopropan-2-yl)benzamide]
The pIC50 of the first is 0.75 log units higher: 6.28 for the first, 5.53 for the second. The first is the more potent here.
